Assay [1] deals with Cyclin-dependent kinase 6 (Homo sapiens) (UniProt Q00534).
Assay [2] deals with Casein kinase I isoform gamma-2 (Homo sapiens) (UniProt P78368).
Assay [3] has as its target Death-associated protein kinase 3 (Homo sapiens) (UniProt O43293).
For assay [4], the target named is Glycogen synthase kinase-3 beta (Homo sapiens, UniProt P49841).
The target of assay [5] is Tyrosine-protein kinase JAK1 (Homo sapiens) (UniProt P23458).
Assay [6] has as its target T1, Dual specificity mitogen-activated protein kinase kinase 6 (Homo sapiens) (UniProt P52564).
T1 sequence (whole entry): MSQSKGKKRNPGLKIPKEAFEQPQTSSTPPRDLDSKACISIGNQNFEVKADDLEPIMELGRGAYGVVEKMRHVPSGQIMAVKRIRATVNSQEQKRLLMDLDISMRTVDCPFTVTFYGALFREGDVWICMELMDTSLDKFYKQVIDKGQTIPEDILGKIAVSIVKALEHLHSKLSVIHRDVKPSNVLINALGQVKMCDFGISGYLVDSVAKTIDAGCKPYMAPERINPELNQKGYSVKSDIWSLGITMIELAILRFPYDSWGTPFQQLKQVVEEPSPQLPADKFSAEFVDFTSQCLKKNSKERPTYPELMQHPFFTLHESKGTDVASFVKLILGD

In assay [7] the target is T2, Mitogen-activated protein kinase kinase kinase 5 (Homo sapiens) (UniProt Q99683).
T2 sequence (whole entry): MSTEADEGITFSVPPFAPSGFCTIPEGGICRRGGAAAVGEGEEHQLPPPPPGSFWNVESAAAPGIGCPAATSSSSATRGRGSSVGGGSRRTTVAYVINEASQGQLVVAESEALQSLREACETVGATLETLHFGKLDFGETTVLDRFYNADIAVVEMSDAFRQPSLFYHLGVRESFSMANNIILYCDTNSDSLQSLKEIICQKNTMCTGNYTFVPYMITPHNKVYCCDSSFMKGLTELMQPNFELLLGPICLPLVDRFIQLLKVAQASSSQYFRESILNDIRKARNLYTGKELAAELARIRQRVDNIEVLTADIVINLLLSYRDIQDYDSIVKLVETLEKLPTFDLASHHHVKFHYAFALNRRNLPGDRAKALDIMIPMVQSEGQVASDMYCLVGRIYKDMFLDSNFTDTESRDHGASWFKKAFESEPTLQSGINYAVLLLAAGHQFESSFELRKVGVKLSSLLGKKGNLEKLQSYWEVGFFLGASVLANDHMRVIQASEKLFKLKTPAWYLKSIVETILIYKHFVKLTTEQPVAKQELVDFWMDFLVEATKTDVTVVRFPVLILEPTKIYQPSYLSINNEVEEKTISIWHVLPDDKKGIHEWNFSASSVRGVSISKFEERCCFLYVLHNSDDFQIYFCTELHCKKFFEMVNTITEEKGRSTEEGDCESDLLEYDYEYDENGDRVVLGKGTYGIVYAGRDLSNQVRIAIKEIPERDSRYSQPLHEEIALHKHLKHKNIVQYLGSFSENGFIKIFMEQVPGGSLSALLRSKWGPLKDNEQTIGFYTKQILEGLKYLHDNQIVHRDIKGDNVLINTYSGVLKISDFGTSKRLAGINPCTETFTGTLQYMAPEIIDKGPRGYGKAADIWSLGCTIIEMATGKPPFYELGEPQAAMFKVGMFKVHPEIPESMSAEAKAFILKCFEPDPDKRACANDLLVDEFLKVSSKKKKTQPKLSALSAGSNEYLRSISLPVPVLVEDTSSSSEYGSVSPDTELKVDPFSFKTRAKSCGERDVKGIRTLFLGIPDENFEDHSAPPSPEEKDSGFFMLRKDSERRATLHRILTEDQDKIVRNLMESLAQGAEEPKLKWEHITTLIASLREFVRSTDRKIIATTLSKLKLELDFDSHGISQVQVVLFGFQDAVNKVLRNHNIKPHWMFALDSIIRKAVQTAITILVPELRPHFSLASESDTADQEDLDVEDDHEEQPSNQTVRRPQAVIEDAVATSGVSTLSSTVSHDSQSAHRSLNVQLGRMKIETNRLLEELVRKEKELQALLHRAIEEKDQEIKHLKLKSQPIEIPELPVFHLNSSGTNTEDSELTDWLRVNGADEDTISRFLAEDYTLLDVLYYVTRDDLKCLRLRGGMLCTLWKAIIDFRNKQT

For assay [8], the target named is Mitogen-activated protein kinase 6 (Homo sapiens) (UniProt Q16659).
Assay [9] addresses Serine/threonine-protein kinase 26 (Homo sapiens) (UniProt Q9P289).
The target in assay [10] is Serine/threonine-protein kinase PAK 4 (Homo sapiens) (UniProt O96013).
Chain of Serine/threonine-protein kinase PAK 4 (Homo sapiens) (O96013 whole entry, looked up): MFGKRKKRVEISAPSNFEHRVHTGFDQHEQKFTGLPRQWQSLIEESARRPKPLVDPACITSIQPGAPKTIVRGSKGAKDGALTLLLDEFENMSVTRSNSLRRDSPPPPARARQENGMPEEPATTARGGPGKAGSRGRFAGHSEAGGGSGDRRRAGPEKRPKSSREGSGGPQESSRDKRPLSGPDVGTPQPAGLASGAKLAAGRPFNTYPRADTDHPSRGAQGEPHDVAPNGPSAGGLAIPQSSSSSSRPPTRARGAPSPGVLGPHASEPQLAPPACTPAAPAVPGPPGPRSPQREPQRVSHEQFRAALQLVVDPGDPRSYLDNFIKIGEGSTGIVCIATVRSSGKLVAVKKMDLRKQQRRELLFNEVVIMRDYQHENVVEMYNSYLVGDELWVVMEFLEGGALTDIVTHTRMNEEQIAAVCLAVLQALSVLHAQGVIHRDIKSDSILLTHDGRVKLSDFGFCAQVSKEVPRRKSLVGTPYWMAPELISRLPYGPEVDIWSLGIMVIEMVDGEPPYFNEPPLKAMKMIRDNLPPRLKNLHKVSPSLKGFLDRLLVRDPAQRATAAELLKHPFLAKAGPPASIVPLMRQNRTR
For assay [11], the target named is Serine/threonine-protein kinase pim-3 (Homo sapiens) (UniProt Q86V86).
The target in assay [12] is cAMP-dependent protein kinase catalytic subunit alpha (Homo sapiens) (UniProt P17612).
For assay [13], the target named is Ribosomal protein S6 kinase alpha-3 (Homo sapiens) (UniProt P51812).
Chain of Ribosomal protein S6 kinase alpha-3 (Homo sapiens) (P51812 whole entry): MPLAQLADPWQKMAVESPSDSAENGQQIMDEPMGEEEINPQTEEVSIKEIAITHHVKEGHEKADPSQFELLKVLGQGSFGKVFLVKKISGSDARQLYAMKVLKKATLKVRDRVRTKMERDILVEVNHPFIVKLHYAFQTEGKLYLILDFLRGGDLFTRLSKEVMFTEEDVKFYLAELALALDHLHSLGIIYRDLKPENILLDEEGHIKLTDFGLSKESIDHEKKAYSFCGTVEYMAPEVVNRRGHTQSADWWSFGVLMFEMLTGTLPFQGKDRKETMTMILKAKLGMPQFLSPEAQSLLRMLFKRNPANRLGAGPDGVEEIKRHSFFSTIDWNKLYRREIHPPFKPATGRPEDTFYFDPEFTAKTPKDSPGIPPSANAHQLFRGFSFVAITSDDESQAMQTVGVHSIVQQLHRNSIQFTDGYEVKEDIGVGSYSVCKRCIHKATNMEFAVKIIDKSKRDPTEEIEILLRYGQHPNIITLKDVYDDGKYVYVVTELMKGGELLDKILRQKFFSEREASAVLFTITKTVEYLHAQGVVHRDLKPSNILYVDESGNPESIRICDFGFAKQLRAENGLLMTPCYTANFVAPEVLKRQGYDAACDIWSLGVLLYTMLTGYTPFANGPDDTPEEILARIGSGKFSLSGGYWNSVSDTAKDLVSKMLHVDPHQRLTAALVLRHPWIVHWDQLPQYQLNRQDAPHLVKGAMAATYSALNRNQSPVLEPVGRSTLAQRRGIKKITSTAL
Assay [14] has as its target Calcium/calmodulin-dependent protein kinase type II subunit beta (Homo sapiens) (UniProt Q13554).
In assay [15] the target is T3, Serine/threonine-protein kinase VRK1 (Homo sapiens) (UniProt Q99986).
T3 sequence (whole entry): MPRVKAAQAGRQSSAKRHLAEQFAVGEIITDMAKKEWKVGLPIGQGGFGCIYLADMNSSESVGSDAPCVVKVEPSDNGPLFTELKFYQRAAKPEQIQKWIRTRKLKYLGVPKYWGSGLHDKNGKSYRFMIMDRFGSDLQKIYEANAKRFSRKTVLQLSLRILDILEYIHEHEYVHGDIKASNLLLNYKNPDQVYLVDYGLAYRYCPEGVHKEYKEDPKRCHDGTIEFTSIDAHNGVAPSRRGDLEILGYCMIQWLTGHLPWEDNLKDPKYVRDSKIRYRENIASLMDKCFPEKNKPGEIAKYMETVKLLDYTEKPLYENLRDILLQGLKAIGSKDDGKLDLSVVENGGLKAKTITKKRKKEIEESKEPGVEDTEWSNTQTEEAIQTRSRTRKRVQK

10 compounds from ChEMBL document CHEMBL1145498, “A systematic interaction map of validated kinase inhibitors with Ser/Thr kinases” (Proc Natl Acad Sci U S A, 2007) can be followed below.

By ΔTm is commonly meant the shift of the melting midpoint relative to a reference.

Chain of Tyrosine-protein kinase JAK1 (Homo sapiens) (P23458 whole entry): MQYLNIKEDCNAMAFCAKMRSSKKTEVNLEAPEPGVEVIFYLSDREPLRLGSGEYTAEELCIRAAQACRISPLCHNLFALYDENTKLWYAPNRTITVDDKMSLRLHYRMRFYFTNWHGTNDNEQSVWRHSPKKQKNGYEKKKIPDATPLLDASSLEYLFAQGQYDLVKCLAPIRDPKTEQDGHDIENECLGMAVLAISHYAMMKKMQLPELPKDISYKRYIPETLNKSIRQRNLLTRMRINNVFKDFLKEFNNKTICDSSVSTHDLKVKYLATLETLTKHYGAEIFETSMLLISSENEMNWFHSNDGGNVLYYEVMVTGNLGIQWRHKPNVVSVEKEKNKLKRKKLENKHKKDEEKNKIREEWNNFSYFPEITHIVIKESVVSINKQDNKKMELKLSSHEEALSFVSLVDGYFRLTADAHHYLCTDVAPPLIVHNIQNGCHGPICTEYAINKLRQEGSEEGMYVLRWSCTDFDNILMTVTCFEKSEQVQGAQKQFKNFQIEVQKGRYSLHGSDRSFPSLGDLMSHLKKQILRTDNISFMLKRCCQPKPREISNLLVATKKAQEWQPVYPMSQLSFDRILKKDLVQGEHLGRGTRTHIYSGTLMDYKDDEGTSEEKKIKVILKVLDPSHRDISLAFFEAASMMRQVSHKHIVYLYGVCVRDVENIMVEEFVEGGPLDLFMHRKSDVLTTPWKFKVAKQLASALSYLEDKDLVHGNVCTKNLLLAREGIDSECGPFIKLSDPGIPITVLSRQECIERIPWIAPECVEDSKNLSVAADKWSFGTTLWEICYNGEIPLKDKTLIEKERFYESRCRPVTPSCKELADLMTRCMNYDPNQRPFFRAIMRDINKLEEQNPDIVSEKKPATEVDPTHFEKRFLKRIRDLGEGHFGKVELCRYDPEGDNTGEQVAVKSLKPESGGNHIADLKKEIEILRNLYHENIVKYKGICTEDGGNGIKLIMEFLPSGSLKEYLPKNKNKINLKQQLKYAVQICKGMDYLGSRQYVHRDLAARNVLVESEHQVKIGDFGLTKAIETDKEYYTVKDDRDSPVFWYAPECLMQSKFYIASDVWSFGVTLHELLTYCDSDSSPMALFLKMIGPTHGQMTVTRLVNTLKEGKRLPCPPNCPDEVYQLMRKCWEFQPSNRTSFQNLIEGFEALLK
Chain of Glycogen synthase kinase-3 beta (P49841 whole entry, looked up): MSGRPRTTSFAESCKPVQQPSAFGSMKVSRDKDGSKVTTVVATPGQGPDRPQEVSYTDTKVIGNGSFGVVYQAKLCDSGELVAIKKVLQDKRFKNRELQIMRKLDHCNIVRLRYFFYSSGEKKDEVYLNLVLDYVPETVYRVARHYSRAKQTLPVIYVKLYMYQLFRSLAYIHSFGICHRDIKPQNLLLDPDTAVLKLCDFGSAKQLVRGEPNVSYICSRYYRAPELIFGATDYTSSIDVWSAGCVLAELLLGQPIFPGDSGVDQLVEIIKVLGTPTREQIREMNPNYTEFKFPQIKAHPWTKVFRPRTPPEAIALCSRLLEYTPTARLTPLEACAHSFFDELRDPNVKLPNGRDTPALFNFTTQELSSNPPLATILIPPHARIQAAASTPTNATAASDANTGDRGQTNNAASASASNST
Chain of Serine/threonine-protein kinase 26 (Homo sapiens) (Q9P289 2-416 limits assumed): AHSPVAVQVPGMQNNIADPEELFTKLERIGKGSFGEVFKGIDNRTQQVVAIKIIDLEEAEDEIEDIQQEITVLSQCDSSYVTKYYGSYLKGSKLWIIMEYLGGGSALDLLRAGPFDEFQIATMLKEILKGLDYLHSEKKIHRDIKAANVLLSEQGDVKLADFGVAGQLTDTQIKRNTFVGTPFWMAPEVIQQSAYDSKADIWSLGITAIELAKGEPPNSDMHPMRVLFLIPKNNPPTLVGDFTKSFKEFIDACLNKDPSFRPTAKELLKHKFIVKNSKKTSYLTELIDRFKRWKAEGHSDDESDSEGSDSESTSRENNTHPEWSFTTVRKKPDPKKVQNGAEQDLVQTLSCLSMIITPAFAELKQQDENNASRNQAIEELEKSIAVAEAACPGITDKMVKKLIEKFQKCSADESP
Chain of Casein kinase I isoform gamma-2 (Homo sapiens) (P78368 whole entry, looked up, canonical isoform): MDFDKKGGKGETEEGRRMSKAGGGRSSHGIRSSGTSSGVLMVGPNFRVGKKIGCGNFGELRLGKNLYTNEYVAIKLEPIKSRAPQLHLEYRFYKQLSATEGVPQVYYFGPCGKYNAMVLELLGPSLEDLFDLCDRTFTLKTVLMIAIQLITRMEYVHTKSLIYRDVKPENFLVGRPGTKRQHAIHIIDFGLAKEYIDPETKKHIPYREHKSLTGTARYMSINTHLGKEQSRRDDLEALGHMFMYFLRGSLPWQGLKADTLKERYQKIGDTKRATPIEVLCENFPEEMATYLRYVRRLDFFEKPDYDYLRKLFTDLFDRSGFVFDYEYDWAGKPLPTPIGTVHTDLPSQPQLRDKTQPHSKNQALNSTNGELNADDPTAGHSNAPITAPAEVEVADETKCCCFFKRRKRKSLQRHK
Chain of Cyclin-dependent kinase 6 (Homo sapiens) (Q00534 whole entry, canonical isoform): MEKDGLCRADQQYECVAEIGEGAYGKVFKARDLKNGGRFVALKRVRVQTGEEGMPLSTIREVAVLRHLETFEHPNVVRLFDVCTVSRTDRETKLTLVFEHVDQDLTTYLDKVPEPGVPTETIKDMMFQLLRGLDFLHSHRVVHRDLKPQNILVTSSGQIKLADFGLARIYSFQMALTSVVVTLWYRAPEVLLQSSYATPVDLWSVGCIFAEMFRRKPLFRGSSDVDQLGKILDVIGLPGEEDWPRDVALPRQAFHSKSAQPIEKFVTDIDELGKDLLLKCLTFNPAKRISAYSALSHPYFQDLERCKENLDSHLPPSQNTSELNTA
Chain of Death-associated protein kinase 3 (Homo sapiens) (O43293 whole entry, looked up): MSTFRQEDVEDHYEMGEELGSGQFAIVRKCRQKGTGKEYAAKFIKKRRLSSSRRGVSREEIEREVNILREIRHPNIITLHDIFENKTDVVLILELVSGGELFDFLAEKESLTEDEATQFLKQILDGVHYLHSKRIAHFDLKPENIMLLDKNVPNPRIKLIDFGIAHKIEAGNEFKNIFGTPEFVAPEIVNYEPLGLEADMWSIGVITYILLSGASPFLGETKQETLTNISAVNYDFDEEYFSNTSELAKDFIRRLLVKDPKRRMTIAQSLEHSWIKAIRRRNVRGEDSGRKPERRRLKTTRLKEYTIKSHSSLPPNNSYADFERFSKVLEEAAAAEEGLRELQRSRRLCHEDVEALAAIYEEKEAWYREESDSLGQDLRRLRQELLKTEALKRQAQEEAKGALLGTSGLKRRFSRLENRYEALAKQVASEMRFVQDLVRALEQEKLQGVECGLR

On to `Cc1nc(N)sc1-c1ccnc(Nc2cccc([N+](=O)[O-])c2)n1`, for which the shift in melting temperature (ΔTm) in assay [1] came to 4.3 °C; in assay [2], 5.1 °C; in assay [3], 8.7 °C; in [4], 2.1 °C; in assay [5], 4.8 °C; in assay [6], 1.2 °C. The ΔTm in [7] amounted to 1.2 °C; in assay [8], 2.1 °C; in [9] it was 0.4 °C; in assay [10] it was 1.6 °C; in assay [11] it was 1.8 °C; in assay [12], 4.8 °C. In addition, the ΔTm in [13] was 10.7 °C.
In the case of `O=C(Nc1cccc(Nc2nccc(Nc3cccc(C(F)(F)F)c3)n2)c1)C1CC1` [ANILINOPYRIMIDINE1], the ΔTm in [14] came out at 1 °C; in assay [1] it was 0.8 °C; in assay [2], 6.5 °C; in assay [3] it was 6.5 °C; in assay [4], 1.1 °C; in [5] it was 2.6 °C. The thermal shift (ΔTm) in assay [6] is 0.2 °C; in [7], 0.2 °C; in assay [8], 1.8 °C; in [9], 1.5 °C; in assay [10], 1.5 °C; in assay [11] it was -0.7 °C. Also, the ΔTm came to 1.3 °C in assay [12] and 5.7 °C in assay [13].
As to `COc1ccc(Cl)cc1NC(=O)Nc1cc(C)nc2ccccc12`, the ΔTm in [14] is 0.3 °C; in assay [1] it was 0.4 °C; in [2] it was -0.1 °C; in assay [3], 2.3 °C; in [4] it was 0 °C; in [5], 0.5 °C. Moreover, the ΔTm in assay [6] is -0.3 °C; in assay [7], 2.2 °C; in assay [8], 2.1 °C; in assay [9] it was 1.1 °C; in assay [10], -0.6 °C; in assay [11] it was 0.8 °C. Further, the figures for the ΔTm in assay [12] and in [13] were 4.8 °C and 0.4 °C, respectively.
Take `CN1CCc2[nH]c(=S)c(C#N)c(-c3cccs3)c2C1`: the ΔTm is -0.2 °C in assay [14]; 0.1 °C in [1]; 5.2 °C in assay [2]; 0.3 °C in assay [3]; 4 °C in assay [4]; -0.1 °C in assay [5]. For the same compound, the ΔTm is -0.2 °C in [6]; 4.7 °C in [7]; 1.2 °C in assay [8]; 1 °C in assay [9]; -0.4 °C in assay [10]; 4.2 °C in assay [11]. Also, the ΔTm turned out to be 14.1 °C in [12] and 0.9 °C in assay [13].
As to `O=C(Nc1cccc(Nc2cc(Nc3cccc(C(F)(F)F)c3)ncn2)c1)C1CC1`, the ΔTm in [14] amounted to 2.9 °C; in assay [1], 0.1 °C; in assay [2], 2.3 °C; in assay [3], 2.1 °C; in [4] it was 1.1 °C; in assay [5] it was 1.7 °C. Besides, the thermal shift (ΔTm) in [6] worked out at 2.1 °C; in [7], 0.9 °C; in [8], 2.1 °C; in assay [9] it was 1.7 °C; in assay [10] it was 0.9 °C; in assay [11], 0.1 °C. Besides, the ΔTm in [12] was 1.1 °C; in assay [13], 2.6 °C.
For `CC(C)[C@H](CO)Nc1nc(Nc2cc(N)cc(Cl)c2)c2ncn(C(C)C)c2n1` [AMINOPURVALANOL], the ΔTm in assay [14] was found to be 0.5 °C; in assay [2], 1.8 °C; in assay [3], 3.4 °C; in assay [4], 0.7 °C; in assay [5], 0.1 °C; in assay [6] it was 1.3 °C. The shift in melting temperature (ΔTm) was 2.4 °C in assay [7]; 1.5 °C in assay [8]; 4.3 °C in assay [9]; -0.1 °C in [10]; 6.7 °C in assay [11]; 6.5 °C in [12]. For the same compound, the ΔTm in assay [13] turned out to be 3.4 °C.
For `CN(c1cccnc1)c1cc2c(Nc3ccc(F)c(Cl)c3)c(C#N)cnc2cn1`, the shift in melting temperature (ΔTm) is 1.2 °C in assay [14]; -0.6 °C in assay [1]; 0.4 °C in assay [2]; 0.7 °C in [3]; 6.3 °C in assay [4]; 0.4 °C in assay [5]. Besides, the ΔTm is 0.4 °C in assay [6]; 1.4 °C in [7]; 4.2 °C in assay [8]; 1.3 °C in assay [9]; 2.6 °C in [10]; -0.2 °C in assay [11]. The ΔTm in assay [12] worked out at 2.2 °C; in [13], 1.7 °C.
As for `CC(C)c1nn(-c2c(Cl)cccc2Cl)c2nc(Cc3ccc(OCCO)cc3)[nH]c(=O)c12`, the ΔTm in assay [14] is 0.9 °C; in [1], 0.5 °C; in [2], -0.3 °C; in assay [3], 6.2 °C; in assay [4] it was 0.2 °C; in assay [5] it was 0.2 °C. Besides, the ΔTm was 0.1 °C in assay [6]; 1 °C in [7]; 0 °C in assay [8]; -0.3 °C in assay [9]; 2.2 °C in assay [10]; -0.4 °C in [11]. The ΔTm in assay [12] is -0.1 °C; in assay [13] it was 3.5 °C.
For the compound `Cc1ccc(NC2=CC(=O)c3sc(C)nc3C2=O)cc1`, the ΔTm is -0.6 °C in assay [14]; -1.7 °C in assay [1]; 0 °C in assay [2]; -0.2 °C in assay [3]; 0.4 °C in assay [4]; -0.9 °C in assay [5]. Besides, the ΔTm in assay [6] is -0.2 °C; in assay [7], -0.2 °C; in assay [8], -0.3 °C; in [9], -0.5 °C; in assay [10] it was -0.7 °C; in assay [11], -0.4 °C. Further, the thermal shift (ΔTm) in assay [12] was -0.4 °C; in assay [13], -0.9 °C.
Take `COc1ccc2c(c1)/C(=C/c1cnc[nH]1)C(=O)N2` [SU-9516]: the ΔTm was 3 °C in assay [1]; 0.7 °C in assay [2]; 2.7 °C in assay [3]; 8.7 °C in [4]; 8.4 °C in assay [5]; 5.1 °C in [6]. Also, the ΔTm amounted to 5.4 °C in assay [7]; 0.2 °C in assay [8]; 4.2 °C in assay [9]; 1.8 °C in [10]; 2.3 °C in assay [11]; 1 °C in assay [12]. For the same compound, the ΔTm in assay [15] was determined as 0.5 °C.
